Data: US20250090699A1, “FAP TARGETING CYCLIC PEPTIDES AND CONJUGATES THEREOF” (Novartis AG, priority 2023, published 2025)
Structures can show the parent of a compound that is named as a salt. Starred links: 1 amine or outer side, 2 acyl side, 3 side chain; linkers in the order of their positions; H or OH if unused. Non-standard residues stand in square brackets, D forms with d. Residues, ends and D or L forms follow the SMILES beside them. Groups on a side chain read outwards from the residue. *: point of attachment. F(4amPEG2NHNODAGA-Ga) = gallium complex of 2,2'-(7-(1-(4-((S)-2-amino-2-carboxyethyl)phenyl)-15-carboxy-3,12-dioxo-5,8-dioxa-2,11-diazapentadecan-15-yl)-1,4,7-triazonane-1,4-diyl)diacetic acid (Phe with 4-aminomethyl-PEG2-NODAGA-Ga), O=C([O-])CN1CCN(CC(=O)[O-])CCN(C(CCC(=O)NCCOCCOCC(=O)NCc2ccc(C[C@H](N[*:1])C(=O)[*:2])cc2)C(=O)[O-])CC1.[Ga+3]; F(4amPEG2NH-NOTA-Ga) = gallium complex of (S)-2,2'-(7-(1-(4-(2-amino-2-carboxyethyl)phenyl)-3,12-dioxo-5,8-dioxa-2,11-diazatridecan-13-yl)-1,4,7-triazonane-1,4-diyl)diacetic acid (Phe with 4-aminomethyl-PEG2-NOTA-Ga), O=C([O-])CN1CCN(CC(=O)[O-])CCN(CC(=O)NCCOCCOCC(=O)NCc2ccc(C[C@H](N[*:1])C(=O)[*:2])cc2)CC1.[Ga+3]; F4(METRIAZOLYLMENHDOTA-Lu) = Phe with 4-(methyl-triazolyl-methyl-NH-DOTA), Lu complex; COpipzaa = 4-(carboxymethyl)piperazine-1-carbonyl, O=C(O)CN1CCN(C(=O)*)CC1; hS(Pr) = O-propyl-L-homoserine, CCCOCC[C@H](N[*:1])C(=O)[*:2]; DOTA = O=C(O)CN1CCN(CC(=O)O)CCN(CC(=O)*)CCN(CC(=O)O)CC1; Phe(4-CH2NH2) = NCc1ccc(C[C@H](N)C(=O)O)cc1; Piperazinyl(4-CH2COOH) = O=C(O)CN1CCN(*)CC1; AEF = NCCOc1ccc(C[C@H](N)C(=O)O)cc1; NMeY = CN[C@@H](Cc1ccc(O)cc1)C(=O)O; Nicotinoyl(6-F) = O=C(c1ccc(F)nc1)*; Hyp = O=C(O)[C@@H]1C[C@@H](O)CN1; NMeF = CN[C@@H](Cc1ccccc1)C(=O)O; Aoc(2) = CCCCCC[C@H](N)C(=O)O; Ahp(2) = CCCCC[C@H](N)C(=O)O; Cba = N[C@@H](CC1CCC1)C(=O)O; hSer = N[C@@H](CCO)C(=O)O; Dab = NCC[C@H](N)C(=O)O; AEEA = NCCOCCOCC(=O)O; CO = O=C([*:1])[*:2]

How the values were obtained:
[1] = target: T1, human FAP (Homo sapiens, UniProt Q12884); test: Enzymatic FAP competition assay (Z-Gly-Pro-AMC fluorescence), human FAP; format: biochemical; conditions: read-out: h. FAP, Enz., IC50
T1 construct: the biotinylated His, Avi tag, human FAP (26-760, FAP-H82Q6); His; Avi tag (biotinylated); purchased AcroBiosystems FAP-H82Q6
T1 sequence (Q12884 26-760): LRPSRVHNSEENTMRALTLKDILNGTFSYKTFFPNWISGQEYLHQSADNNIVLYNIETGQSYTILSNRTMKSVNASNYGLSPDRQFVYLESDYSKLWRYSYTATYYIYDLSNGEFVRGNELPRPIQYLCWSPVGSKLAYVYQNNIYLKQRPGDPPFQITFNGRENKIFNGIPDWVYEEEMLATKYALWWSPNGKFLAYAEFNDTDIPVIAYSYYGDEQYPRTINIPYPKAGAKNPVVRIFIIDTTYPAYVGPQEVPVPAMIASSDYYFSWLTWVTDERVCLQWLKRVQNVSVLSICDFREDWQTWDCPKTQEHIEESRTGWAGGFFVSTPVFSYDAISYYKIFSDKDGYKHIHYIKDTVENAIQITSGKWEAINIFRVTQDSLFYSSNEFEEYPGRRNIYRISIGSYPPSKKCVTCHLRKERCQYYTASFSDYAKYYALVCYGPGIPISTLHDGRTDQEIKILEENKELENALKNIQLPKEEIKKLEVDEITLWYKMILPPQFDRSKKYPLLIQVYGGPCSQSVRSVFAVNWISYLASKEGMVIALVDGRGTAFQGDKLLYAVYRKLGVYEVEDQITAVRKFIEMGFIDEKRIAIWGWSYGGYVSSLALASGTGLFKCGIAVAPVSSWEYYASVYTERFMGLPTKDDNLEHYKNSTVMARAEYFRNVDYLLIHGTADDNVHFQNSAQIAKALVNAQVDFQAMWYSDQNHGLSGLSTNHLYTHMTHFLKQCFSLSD
Summary of the method: (§1)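 Biotinylated His/Avi-tagged FAP ectodomain (human 26-760, mouse 26-761) at 0.01 nM, preincubated 24 h with peptides (14 concentrations, up to 1 μM) in pH 7.5 phosphate, 150 mM NaCl, 0.05% Tween20, 1% DMSO. Then 50 μM Z-Gly-Pro-AMC, 4 h at 22-24° C; AMC fluorescence (380/460 nm) gave IC50 from duplicate points.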

[2] = target: T2, mouse FAP (Mus musculus, UniProt P97321); test: Enzymatic FAP competition assay (Z-Gly-Pro-AMC fluorescence), mouse FAP; format: biochemical; conditions: read-out: m. FAP, Enz., IC50
T2 construct: biotinylated His, Avi tag, mouse FAP (26-761, FAP-M82Q5); His; Avi tag (biotinylated); purchased AcroBiosystems FAP-M82Q5
T2 sequence (P97321 26-761): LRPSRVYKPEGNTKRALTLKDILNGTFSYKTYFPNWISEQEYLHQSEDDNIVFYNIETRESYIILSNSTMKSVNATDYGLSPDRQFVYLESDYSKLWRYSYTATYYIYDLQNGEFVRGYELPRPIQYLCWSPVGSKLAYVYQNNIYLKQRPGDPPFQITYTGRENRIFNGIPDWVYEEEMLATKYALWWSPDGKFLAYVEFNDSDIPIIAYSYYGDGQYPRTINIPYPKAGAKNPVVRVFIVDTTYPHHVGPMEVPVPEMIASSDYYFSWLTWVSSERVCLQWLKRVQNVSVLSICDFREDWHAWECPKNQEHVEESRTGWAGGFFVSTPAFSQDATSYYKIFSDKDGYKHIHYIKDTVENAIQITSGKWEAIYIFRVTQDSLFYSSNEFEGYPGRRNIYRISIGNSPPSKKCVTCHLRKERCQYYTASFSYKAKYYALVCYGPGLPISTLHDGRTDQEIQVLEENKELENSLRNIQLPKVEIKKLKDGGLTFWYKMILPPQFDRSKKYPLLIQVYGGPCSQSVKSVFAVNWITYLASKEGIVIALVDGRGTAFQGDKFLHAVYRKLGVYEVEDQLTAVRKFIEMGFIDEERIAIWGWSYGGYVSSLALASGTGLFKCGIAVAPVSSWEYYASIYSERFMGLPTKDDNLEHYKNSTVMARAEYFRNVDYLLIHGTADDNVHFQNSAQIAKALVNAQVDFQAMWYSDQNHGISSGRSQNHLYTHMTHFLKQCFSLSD
Summary of the method: as §1

[3] = target: T2, mouse FAP; test: Surface plasmon resonance (SPR) for peptide affinity, mouse FAP; format: binding
Summary of the method: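 Biotinylated His/Avi-tagged FAP ectodomains (human 26-760, mouse 26-761) captured or immobilized on Biacore sensor chips; peptides run at 25 °C in HBS-EP+ pH 7.6 with 2% DMSO, single-cycle kinetics, 8 concentrations. KD from 1:1 binding-model fit of sensorgrams.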

Compound | IC50 [1] [pM] | IC50 [2] [pM] | Kd [3] [pM]
CCCCCC[C@@H]1NC(=O)[C@H](Cc2ccc(CNC(=O)COCCOCCNC(=O)c3ccc(F)nc3)cc2)NC(=O)[C@H](Cc2ccccc2)N(C)C(=O)CNC(=O)CNC(=O)[C@H]2CCCN2C(=O)[C@H](CC(=O)O)NC(=O)[C@H](CCCCNC(=O)N2CCN(CC(=O)O)CC2)NC(=O)CNC(=O)[C@H](Cc2c[nH]c3ccccc23)NC1=O [Example C55, Gly-Gly-NMePhe-F(4amPEG2NHCOPy3(4F))-Aoc-Trp-Gly-K(COpipzaa)-Asp-D-Pro] (cyclo([Aoc(2)]WGK([CO-Piperazinyl(4-CH2COOH)])D[dP]GG[NMeF][Phe(4-CH2NH2)]([AEEA-Nicotinoyl(6-F)]))) | 6 | 22 | < 14
CCCCC[C@@H]1NC(=O)[C@H](Cc2ccc(O)cc2)NC(=O)[C@H](CC2CCC2)NC(=O)CNC(=O)CNC(=O)[C@H]2CCCN2C(=O)[C@H](CC(=O)O)NC(=O)[C@H](Cc2ccc(O)cc2)NC(=O)CNC(=O)[C@H](Cc2c[nH]c3ccccc23)NC1=O [Example A60, Gly-Gly-cBuA-Tyr-Ahp-Trp-Gly-Tyr-Asp-D-Pro] (cyclo([Ahp(2)]WGYD[dP]GG[Cba]Y)) | 41 | 127 | 50
CCCCC[C@@H]1NC(=O)[C@H](Cc2ccc(O)cc2)NC(=O)[C@H](Cc2ccccc2)N(C)C(=O)CNC(=O)[C@H](CO)NC(=O)[C@H]2CCCN2C(=O)[C@H](CC(=O)O)NC(=O)[C@H](Cc2ccc(O)cc2)NC(=O)CNC(=O)[C@H](Cc2c[nH]c3ccccc23)NC1=O [Example A19, Ser-Gly-NMePhe-Tyr-Ahp-Trp-Gly-Tyr-Asp-D-Pro] (cyclo([Ahp(2)]WGYD[dP]SG[NMeF]Y)) | 145 | 660 | 260
Gly-Gly-NMePhe-F(4amPEG2NHNODAGA-Ga)-hS(Pr)-Trp-Gly-K(COpipzaa)-Asp-D-Pro (cyclo(GG[NMeF][F(4amPEG2NHNODAGA-Ga)][hS(Pr)]WGK(COpipzaa)D[dP]); also: Ga complex) [Example C40] | 6 | 19 | < 20
CCCCC[C@@H]1NC(=O)[C@H](Cc2ccc(O)cc2)NC(=O)[C@H](Cc2ccccc2)N(C)C(=O)CNC(=O)CNC(=O)[C@H]2CCCN2C(=O)[C@H](CC(=O)O)NC(=O)[C@H](CCNC(=O)N2CCN(CC(=O)O)CC2)NC(=O)CNC(=O)[C@H](Cc2c[nH]c3ccccc23)NC1=O [Example A5, Gly-Gly-NMePhe-Tyr-Ahp-Trp-Gly-Dab(COPipzaa)-Asp-D-Pro] (cyclo([Ahp(2)]WG[Dab]([CO-Piperazinyl(4-CH2COOH)])D[dP]GG[NMeF]Y)) | 70 | 500 | 620
Gly-Gly-NMePhe-F(4amPEG2NH-NOTA-Ga)-hS(Pr)-Trp-Gly-K(COpipzaa)-Asp-D-Pro (cyclo(GG[NMeF][F(4amPEG2NH-NOTA-Ga)][hS(Pr)]WGK(COpipzaa)D[dP]); also: Ga complex) [Example C41] | 13 | 31 | < 43
Gly-Gly-NMePhe-F4(METRIAZOLYLMENHDOTA-Lu)-Ahp-Trp-Gly-Tyr-Asp-D-Pro (cyclo(GG[NMeF][F4(METRIAZOLYLMENHDOTA-Lu)][Ahp(2)]WGYD[dP]); also: Lu complex) [Example C14] | 9 | 24 | 48
CCCCC[C@@H]1NC(=O)[C@H](Cc2ccc(OCCN)cc2)NC(=O)[C@H](Cc2ccccc2)N(C)C(=O)CNC(=O)[C@@H]2C[C@@H](O)CN2C(=O)[C@H]2CCCN2C(=O)[C@H](CC(=O)O)NC(=O)[C@H](Cc2ccc(O)cc2)NC(=O)CNC(=O)[C@H](Cc2c[nH]c3ccccc23)NC1=O [Example A33, trans4Hyp-Gly-NMePhe-F(4OEtNH2)-Ahp-Trp-Gly-Tyr-Asp-D-Pro] (cyclo([AEF][Ahp(2)]WGYD[dP][Hyp]G[NMeF])) | 1000 | 3200 | 1100
CCCCC[C@@H]1NC(=O)[C@H](Cc2ccc(O)cc2)NC(=O)[C@H](Cc2ccccc2)N(C)C(=O)CNC(=O)[C@H](CC(=O)O)NC(=O)[C@H]2CCCN2C(=O)[C@H](CC(=O)O)NC(=O)[C@H](Cc2ccc(O)cc2)NC(=O)CNC(=O)[C@H](Cc2c[nH]c3ccccc23)NC1=O [Example A18, Asp-Gly-NMePhe-Tyr-Ahp-Trp-Gly-Tyr-Asp-D-Pro] (cyclo([Ahp(2)]WGYD[dP]DG[NMeF]Y)) | 270 | 710 | 222
CCCCC[C@@H]1NC(=O)[C@H](Cc2ccc(O)cc2)NC(=O)[C@H](Cc2ccccc2)N(C)C(=O)CNC(=O)CNC(=O)[C@H]2CCCN2C(=O)[C@H](CCO)NC(=O)[C@H](Cc2ccc(O)cc2)NC(=O)CNC(=O)[C@H](Cc2c[nH]c3ccccc23)NC1=O [Example A57, Gly-Gly-NMePhe-Tyr-Ahp-Trp-Gly-Tyr-hSer-D-Pro] (cyclo([Ahp(2)]WGY[hSer][dP]GG[NMeF]Y)) | 6600 | 25000 | 19000
CCCCC[C@@H]1NC(=O)[C@H](Cc2ccc(OCCNC(=O)CN3CCN(CC(=O)O)CCN(CC(=O)O)CCN(CC(=O)O)CC3)cc2)NC(=O)[C@H](Cc2ccccc2)N(C)C(=O)CNC(=O)CNC(=O)[C@H]2CCCN2C(=O)[C@H](CC(=O)O)NC(=O)[C@H](CCCCNC(=O)N2CCN(CC(=O)O)CC2)NC(=O)CNC(=O)[C@H](Cc2c[nH]c3ccccc23)NC1=O [Example B3, Gly-Gly-NMePhe-F(4OEtNHDOTA)-Ahp-Trp-Gly-K(COpipzaa)-Asp-D-Pro] (cyclo([AEF](DOTA)[Ahp(2)]WGK([CO-Piperazinyl(4-CH2COOH)])D[dP]GG[NMeF])) | 25 | 91 | 93
CCCCC[C@@H]1NC(=O)[C@H](Cc2ccc(CNC(=O)CN3CCN(CC(=O)O)CCN(CC(=O)O)CCN(CC(=O)O)CC3)cc2)NC(=O)[C@H](Cc2ccccc2)N(C)C(=O)CNC(=O)CNC(=O)[C@H]2CCCN2C(=O)[C@H](CC(=O)O)NC(=O)[C@H](Cc2ccc(O)cc2)NC(=O)CNC(=O)[C@H](Cc2c[nH]c3ccccc23)NC1=O [Example B17, Gly-Gly-NMePhe-F(4amDOTA)-Ahp-Trp-Gly-Tyr-Asp-D-Pro, TFA salt] (cyclo([Ahp(2)]WGYD[dP]GG[NMeF][Phe(4-CH2NH2)](DOTA))) | 33 | 158 | 133
CCCCC[C@@H]1NC(=O)[C@H](Cc2ccc(O)cc2)NC(=O)[C@H](Cc2ccccc2)N(C)C(=O)CNC(=O)CNC(=O)[C@H]2CCCN2C(=O)[C@H](CC(=O)O)NC(=O)[C@H](Cc2ccc(O)cc2)N(C)C(=O)CNC(=O)[C@H](Cc2c[nH]c3ccccc23)NC1=O [Example A50, 2-((9S,12S,15S,18S,24S,27S,32aR)-18-((1H-indol-3-yl)methyl)-9-benzyl-12,24-bis(4-hydroxybenzyl)-8,23-dimethyl-1,4,7,10,13,16,19,22,25,28-decaoxo-15-pentyldotriacontahydropyrrolo[1,2-a][1,4,7,10,13,16,19,22,25,28]decaazacyclotriacontin-27-yl)acetic acid] (cyclo([Ahp(2)]WG[NMeY]D[dP]GG[NMeF]Y)) | 950 | 2400 | 2800
